Assay results reported in patent US12630544B2, “Compound, α-synuclein aggregate binder, and use thereof” (NATIONAL INSTITUTES FOR QUANTUM SCIENCE AND TECHNOLOGY, priority 2020, dated 2026).

Tests used:
[1] = target: T1, α-synuclein aggregates (Mus musculus, UniProt O55042); experiment: In vivo PET imaging of mouse brain (α-synuclein fibril-inoculated mouse vs physiological saline-injected mouse); conditions: α-synuclein fibril-inoculated model mouse, intravenous injection
T1 construct: from tissue; host or cells: brain of C57/BL/6 mouse inoculated in the striatum with recombinant (E. coli) mouse α-synuclein fibrils; sections or living animal
Method: First, mouse α-synuclein was expressed in and extracted from E. coli as a recombinant protein, and then incubated in vitro to form insoluble α-synuclein aggregates. The α-synuclein aggregates were then inoculated into the striatum of a mouse. […] Note that the inoculation of the α-synuclein aggregates into the striatum of the mouse was carried out in the following manner. First, hair on the head of a 9-week-old C57/BL/6 male mouse which had been anesthetized with 1.5% (v/v) isoflurane was removed, and the scalp was disinfected with isodine, followed by application of xylocaine and incision in the scalp to expose the skull. Then, a hole was drilled in the skull at a position of 0.05 mm posterior to the bregma and 2 mm lateral to the midline, and 3 μl of an α-synuclein fibril solution (mouse α-synuclein fibril (4 mg/ml) in saline) was injected into a position […] ventral to the brain surface with use of a glass pipette. The scalp was then returned and sutured.
PET scanning was carried out with use of a micro PET Focus 220 animal scanner (Siemens Medical Solutions), which provided 95 slices each having a thickness of 0.851 mm (center thickness), a […]. Before the scanning, an α-synuclein fibril-inoculated mouse and a physiological saline-injected mouse (control) were each anesthetized with 1.5% (v/v) isoflurane. […]

[2] = Ex vivo imaging (autoradiography) of brain of physiological saline-injected mouse; type: in vivo; conditions: intravenous, brain collected 40 minutes after administration
Method: A physiological saline-injected mouse was anesthetized with 1.5% (v/v) isoflurane. Then, [^18F]SPAL-T-06 (28.9 MBq) was intravenously injected into the physiological saline-injected mouse. Forty minutes after the administration of [^18F]SPAL-T-06, the brain was collected and frozen. In a cryostat (HM560), frozen coronal sections each having a thickness of 20 μm and respectively including positions at 0.50 mm, −0.46 mm, −1.94 mm, −3.16 mm, and −6.64 mm from the bregma were prepared. Each section was air-dried, and then placed in contact with an imaging plate for 15 minutes in a cassette. Thereafter, autoradiographs were obtained with use of BAS-5000 (Fuji Film).

[3] = system: α-synuclein aggregates; experiment: In vivo PET imaging of α-synuclein fibril-inoculated marmoset brain; conditions: intravenous injection
[4] = target: homogenate of the brain of the AD patient (tau aggregates or amyloid β aggregates); experiment: In vitro binding test, homogenate of the brain of the AD patient; parameters: species or system human; conditions: [18F]SPAL-T-06 5 nM displaced by non-labeled SPAL-T-06 0.01 nM to 1 μM; frontal cortex; room temperature 30 minutes
Method: (§1) Fresh frozen tissue from the amygdala in the brain of a DLB patient and fresh frozen tissue from the frontal cortex in the brain of an AD patient were used. To each fresh frozen brain tissue, zirconia beads (ZB-20, TOMY) and a buffer solution which was 10 times the wet weight of the tissue were added. A mixture thus obtained was smashed with use of Micro Smash (MS-100R, TOMY) and then stored at −80° C. A homogenate of the brain of the DLB patient or a homogenate of the brain of the AD patient, [^18F]SPAL-T-06 (final concentration: 5 nM), and non-labeled SPAL-T-06 (final concentration: 0.01 nM to 1 μM) were mixed into a Tris-HCl buffer solution (containing 20% ethanol). Incubation was carried out at room temperature for 30 minutes, and then B/F separation (B: bound ligand, F: free ligand) was carried out by suction filtration and washing. Thereafter, radioactivity captured on a glass filter was measured with use of a gamma counter (2480WIZARD2, ParkinElmer). With regard to the concentration of each non-labeled SPAL-T-06, a test was carried out in triplicate. Results were analyzed with use of Prism 6J (GraphPad), displacement curves of the tested compounds were obtained, and then IC50 of each was calculated.

[5] = target: T2, homogenate of the brain of the DLB patient which was rich in α-synuclein lesions (Homo sapiens, UniProt P37840); experiment: In vitro binding test, homogenate of the brain of the DLB patient
T2 construct: α-synuclein aggregates formed in the brain of the DLB patient; from tissue; host or cells: post-mortem human brain: amygdala of DLB patient (sections or homogenate); cerebellum of MSA patient
Method: as §1

[6] = target: T3, lesions caused by phosphorylated α-synuclein (Homo sapiens, UniProt P37840); experiment: In vitro autoradiography of human brain sections (DLB, MSA, healthy subject); type: binding; conditions: 10 nM
T3 construct: α-synuclein aggregates formed in the brain of the DLB patient; from tissue; host or cells: post-mortem human brain: amygdala of DLB patient (sections or homogenate); cerebellum of MSA patient
Source text: Postmortem human brains were obtained in autopsies carried out with respect to a DLB patient, a multiple system atrophy (MSA) patient, and a healthy subject. In a cryostat (HM560, Carl Zeiss), frozen tissue from the DLB patient and frozen tissue from the healthy subject were sliced into sections each having a thickness of 20 μm. Brain tissue from the MSA patient was fixed in 10% neutral buffered formalin, embedded in a paraffin block, and sliced into sections each having a thickness of 6 μm.
Postfixed fresh frozen sections of amygdala tissue from the brain of the DLB patient and the frontal cortex tissue from the brain of the healthy subject and deparaffinized sections of formalin-fixed paraffin-embedded cerebellum tissue from the brain of the MSA patient were used. Each brain tissue section and [^18F]SPAL-T-06 (final concentration: 10 nM) were incubated in 50 mM Tris-HCl containing 20% ethanol at room temperature for 1 hour. In order to detect specific binding, the brain tissue section was also incubated in 50 mM Tris-HCl (containing 20% ethanol) containing [^18F]SPAL-T-06 (final concentration: 10 nM) and non-labeled SPAL-T-06 (final concentration: 10 μM). Subsequently, the section was washed with 50 mM Tris-HCl (containing 20% EtOH) at 4° C. for 2 minutes. This washing was carried out twice. Thereafter, the section was rinsed with MilliQ. […]

accumulation in striatum and cerebral cortex rich in α-synuclein lesions (PET) [1]: clear accumulation
IC50 [4]: 10.9 nM
binding selectivity with respect to α-synuclein aggregates versus tau or amyloid β aggregates (homogenate binding) ([5]; DLB versus AD brain homogenate): high binding selectivity
IC50 ([5]; [18F]SPAL-T-06 5 nM displaced by non-labeled SPAL-T-06 0.01 nM to 1 μM, amygdala, room temperature 30 minutes): 1.58 nM
non-specific binding in gray matter and white matter of healthy subject frontal cortex (autoradiography) ([6]; section of frontal cortex of healthy subject): hardly observed
SMILES: CNc1cnc(C#C/C=C/c2nc3ccc(OCC(O)C[18F])cc3s2)cn1 (centres unmarked) [[^18F]SPAL-T-06, [^18F]-(E)-1-fluoro-3-((2-(4-(5-(methylamino)pyrazin-2-yl)but-1-en-3-yn-1-yl)benzo[d]thiazol-6-yl)oxy)propan-2-ol]
nonspecific accumulation in the white matter area (ex vivo autoradiography) [2]: not seen
accumulation in the caudate nucleus rich in α-synuclein lesions (PET) [3]: clear accumulation
binding to areas rich in lesions caused by phosphorylated α-synuclein (autoradiography) ([6]; DLB amygdala and MSA cerebellum sections, 1 hour): bound to areas in the brains of the DLB patient and the MSA patient which were rich in lesions caused by phosphorylated α-synuclein
